PMC11882969 (Nature Communications, 2025)

Assays:
CB1 (rCB1) [1] = molecular target: T1, CB1 (rCB1) (Rattus norvegicus, UniProt P20272); test: Single-point radioligand displacement screen; type: binding; conditions: 10 µM, 1 µM or 300 nM by cell colour (not visible)
hCB1 = hCB1 (Homo sapiens, UniProt P21554); test: bioSensAll ebBRET signaling profiling, hCB1; type: cell-based; set-up: host or cells: HEK293SL cells, transient PEI transfection; conditions: for Barr2+GRK2 hCB1 response: Barr2+GRK2 biosensor; for Gi1 hCB1 / GoB hCB1: single replicate values, FigS6a
hCB1, sequence (P21554 whole entry): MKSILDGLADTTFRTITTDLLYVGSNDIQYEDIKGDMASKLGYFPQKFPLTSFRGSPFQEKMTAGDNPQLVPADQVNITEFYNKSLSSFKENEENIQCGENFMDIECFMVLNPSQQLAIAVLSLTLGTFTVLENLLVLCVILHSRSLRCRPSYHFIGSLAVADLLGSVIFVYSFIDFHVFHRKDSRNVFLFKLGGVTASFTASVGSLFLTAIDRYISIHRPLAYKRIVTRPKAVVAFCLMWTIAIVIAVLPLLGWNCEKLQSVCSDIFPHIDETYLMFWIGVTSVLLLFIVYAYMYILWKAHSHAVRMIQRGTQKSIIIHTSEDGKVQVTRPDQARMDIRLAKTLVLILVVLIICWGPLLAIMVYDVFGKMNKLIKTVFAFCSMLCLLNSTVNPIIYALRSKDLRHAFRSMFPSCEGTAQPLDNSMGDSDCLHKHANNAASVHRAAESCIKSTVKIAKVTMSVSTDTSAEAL

CB1 (rCB1) [2] = molecular target: T1, CB1 (rCB1); test: Radioligand competition binding, [3H]-CP-55,940, rat brain membranes

T1 sequence (P20272 whole entry): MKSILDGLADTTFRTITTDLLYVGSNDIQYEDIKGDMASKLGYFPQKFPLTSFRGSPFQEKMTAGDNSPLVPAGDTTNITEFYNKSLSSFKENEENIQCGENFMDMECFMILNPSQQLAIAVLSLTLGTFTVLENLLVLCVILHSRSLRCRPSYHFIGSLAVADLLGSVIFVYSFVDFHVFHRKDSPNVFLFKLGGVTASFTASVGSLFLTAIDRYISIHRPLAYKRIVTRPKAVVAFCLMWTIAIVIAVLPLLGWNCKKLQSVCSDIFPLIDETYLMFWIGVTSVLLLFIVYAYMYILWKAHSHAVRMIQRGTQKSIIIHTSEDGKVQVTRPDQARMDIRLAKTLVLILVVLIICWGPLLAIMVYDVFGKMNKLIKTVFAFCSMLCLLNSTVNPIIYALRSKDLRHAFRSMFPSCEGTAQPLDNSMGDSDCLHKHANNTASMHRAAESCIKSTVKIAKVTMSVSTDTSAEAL

## Brc1cc2c(cc1Cc1noc(-c3cnn(CC4CC4)c3)n1)OCO2 [‘5424]
CB1 (rCB1) [1]
  % 1H-CP-55,940 displacement (mean) from single point screen: 80.66%
hCB1; Log [Compound] (M) -4.22186
  Barr2+GRK2 hCB1 response: 13.3846
  Gi1 hCB1: -12.5553
  GoB hCB1: -17.0204
hCB1; Log [Compound] (M) -4.63927
  Barr2+GRK2 hCB1 response: -34.7954
  Gi1 hCB1: -11.9852
  GoB hCB1: -18.7739
hCB1; Log [Compound] (M) -5.05788
  Barr2+GRK2 hCB1 response: -53.3016
  Gi1 hCB1: -14.0757
  GoB hCB1: -12.8536
hCB1; Log [Compound] (M) -5.47381
  Barr2+GRK2 hCB1 response: -24.9041
  Gi1 hCB1: -12.6978
  GoB hCB1: -15.4926
hCB1; Log [Compound] (M) -5.89285
  Barr2+GRK2 hCB1 response: -50.1109
  Gi1 hCB1: -12.001
  GoB hCB1: -16.569
hCB1; Log [Compound] (M) -6.31878
  Barr2+GRK2 hCB1 response: -50.749
  Gi1 hCB1: -13.0779
  GoB hCB1: -15.128
hCB1; Log [Compound] (M) -6.72585
  Barr2+GRK2 hCB1 response: -48.8346
  Gi1 hCB1: -11.811
  GoB hCB1: -16.3259
hCB1; Log [Compound] (M) -7.14267
  Barr2+GRK2 hCB1 response: -52.6635
  Gi1 hCB1: -11.1775
  GoB hCB1: -15.4926
hCB1; Log [Compound] (M) -7.55284
  Barr2+GRK2 hCB1 response: -51.0681
  Gi1 hCB1: -10.8449
  GoB hCB1: -14.0342
hCB1; Log [Compound] (M) -8
  Barr2+GRK2 hCB1 response: -33.5191
  Gi1 hCB1: -8.707
  GoB hCB1: -12.871
hCB1; Log [Compound] (M) -8.22186
  Barr2+GRK2 hCB1 response: -13.7366
  Gi1 hCB1: -5.46
  GoB hCB1: -9.781
hCB1; Log [Compound] (M) -8.39794
  Barr2+GRK2 hCB1 response: -34.7954
  Gi1 hCB1: -6.126
  GoB hCB1: -10.3709
hCB1; Log [Compound] (M) -8.68787
  Barr2+GRK2 hCB1 response: -65.1073
  Gi1 hCB1: -3.497
  GoB hCB1: -5.77
hCB1; Log [Compound] (M) -9.15521
  Barr2+GRK2 hCB1 response: -41.4959
  Gi1 hCB1: -3.212
  GoB hCB1: -5.544
hCB1; Log [Compound] (M) -9.61989
  Barr2+GRK2 hCB1 response: -48.1965
  Gi1 hCB1: -0.3926
  GoB hCB1: -4.867
hCB1; Log [Compound] (M) -10.0969
  Barr2+GRK2 hCB1 response: -56.8114
  Gi1 hCB1: -1.39
  GoB hCB1: -5.128
hCB1; Log [Compound] (M) -10.5529
  Barr2+GRK2 hCB1 response: -48.8346
  Gi1 hCB1: 0.9853
  GoB hCB1: -3.287
hCB1; Log [Compound] (M) -11.0177
  Barr2+GRK2 hCB1 response: -49.7918
  Gi1 hCB1: -1.058
  GoB hCB1: -4.781
hCB1; Log [Compound] (M) -11.4949
  Barr2+GRK2 hCB1 response: -48.1965
  Gi1 hCB1: -2.008
  GoB hCB1: -5.51
hCB1; Log [Compound] (M) -11.9208
  Barr2+GRK2 hCB1 response: -46.9202
  Gi1 hCB1: -4.653
  GoB hCB1: -6.586
hCB1; Log [Compound] (M) -12.3979
  Barr2+GRK2 hCB1 response: -47.8774
  Gi1 hCB1: -2.024
  GoB hCB1: -6.3778
hCB1; Log [Compound] (M) -12.8861
  Barr2+GRK2 hCB1 response: -20.4371
  Gi1 hCB1: -1.992
  GoB hCB1: -4.242
hCB1; Log [Compound] (M) -13.3979
  Barr2+GRK2 hCB1 response: -11.8221
hCB1; Log [Compound] (M) -13
  Gi1 hCB1: 0.06671
  GoB hCB1: -4.798
hCB1; Log [Compound] (M) cell empty
  Gi1 hCB1: -0.7726
  GoB hCB1: -5.458
CB1 (rCB1) [2]
  Ki: 876 nM
